This series in a line: Pre-clinical PET biodistribution. Conditions: Wistar rats, radiolabel carried on [18F]RI-OR2-TAT. It counts as in vivo. As for the experimental part:
Wistar rats (n =3) were anaesthetised using isoflurane (induction 4% and maintained 1.5%) in 70% N2O and 30% O2 mixture. […] All scans were carried out using a Siemens Inveon® PET-CT scanner. The acquisition protocol parameters consisted of a preliminary CT scan to attain attenuation correction factors followed by a 1 h PET acquisition with time coincidence window of 3.432 ns and levels of energy discrimination set between 350 keV and 650 keV. Images were reconstructed and analysed as described elsewhere ([Boutin et al., 2015]).

Structures are written as SMILES.

For `O=Cc1cccnc1[18F]` [[^18F]FPCA, 2-[^18F]-Fluoro-3-pyridinecarboxaldehyde], the “stability to defluorination (bone uptake of radioactivity)” value is listed as “relatively little bone uptake”.

(Values after article PMC5034901, “Development & automation of a novel [^18F]F prosthetic group, 2-[^18F]-fluoro-3-pyridinecarboxaldehyde, and its application to an amino(oxy)-functionalised Aβ peptide” (Applied Radiation and Isotopes, 2016).)
